The values that follow come from publication PMC6085350, “Small molecule inhibitors of RAS-effector protein interactions derived using an intracellular antibody fragment” (Nature Communications, 2018).

The test system of assay [1] is ERK1/2 phosphorylation in H358 cells (KRAS^G12C). Description: Biomarker phosphorylation assay, pERK, H358. The format is cell-based, human. The settings on record: H358, 2-20 μM, 3 h, EGF 10 min. On the procedure:
(§1) Fig. 5 Abd-7 results on RAS-dependent signalling pathways and cell viability. a, b DLD-1 (a) or H358 (b) cells were serum-starved for 24 h, incubated in mono-layer with Abd-7 in a range from 2, 5, 10 and 20 μM for 3 h and stimulated with EGF 10 min. Proteins were extracted and separated by SDS-PAGE and transferred to membranes for Western analysis with anti-pAKT, anti-pERK, anti-pan AKT and anti-pan ERK. Anti-cyclophilin B antibody was the loading control. Signal was developed using standard ECL. c–e Effects of compounds Abd-2, Abd-4, Abd-5, Abd-6, and Abd-7 on the viability of human cancer cells lines was assessed for a 2-D culture of DLD-1 (mutant KRAS^G13D) cells and HT1080 cells (mutant NRAS^Q61K). The cells were treated with a dose range from 0 μM to 20 μ and incubated for 72 h when cell viability was assessed using CellTitreGlo. […] Each experiment was repeated at least three times (a, b) and four times (c, d). Where error bars are presented, they correspond to mean values ± SD of biological repeats
A total of 450,000 DLD1 or 640,000 H358 cells were seeded per well of a six well plate. Approximately, 20 h later, the medium was removed, the cells washed twice with PBS and DMEM without FBS was added and left for 24 h. […] Cell lysates were sonicated with a Branson Sonifier and the protein concentrations determined by using the Pierce BCA protein assay kit (Thermo-Fisher). […]

Another assay concerns the target T1, PDK1 (Homo sapiens, UniProt O15530).
T1 construct: purchased Eurofins Pharma Discovery Services (KinaseProfiler)
The assay is described as follows: Kinase panel (KinaseProfiler). Format: biochemical. Particulars: PDK1, 10μM. On the procedure:
(§2) Experiments were performed by Eurofins Pharma Discovery Services. The KinaseProfiler™ assay protocol guide can be downloaded from their website: www.eurofins.com/discoveryservices. The guide contains information on the buffer conditions, substrate and reference inhibitor blank used for each kinase.
(§3) Supplementary Table 3. Assessment of potential interaction of Abd-7 with a human kinase
(§4) Kinase % kinase activity in
(§5) A panel of 14 Kinases (relevant to the RAS pathway) has been screened against Abd-7
(§6) (10μM) and the kinase activity was measured. […] of activity was observe for all
(§7) function of the selected and RAS relevant kinase proteins.

A further assay concerns the target T2, CRAF (Homo sapiens, UniProt P04049).
T2 construct: purchased Eurofins Pharma Discovery Services (KinaseProfiler)
Description: Kinase panel (KinaseProfiler). The format is biochemical. The settings on record: 10μM. On the procedure:
as §2, §3, §4, §5, §6, §7

The target of a further assay is T3, BRAF (Homo sapiens, UniProt P15056).
T3 construct: purchased Eurofins Pharma Discovery Services (KinaseProfiler)
The assay is described as follows: Kinase panel (KinaseProfiler). Particulars: 10μM. Format: biochemical. On the procedure:
as §2, §3, §4, §5, §6, §7

Another assay has as its target T4, MEK1 (Homo sapiens, UniProt Q02750).
T4 construct: purchased Eurofins Pharma Discovery Services (KinaseProfiler)
Description: Kinase panel (KinaseProfiler). Format: biochemical. Particulars: MEK1, 10μM. On the procedure:
as §2, §3, §4, §5, §6, §7

In a further assay the target is T5, MEK2 (Homo sapiens, UniProt P36507).
T5 construct: purchased Eurofins Pharma Discovery Services (KinaseProfiler)
Description: Kinase panel (KinaseProfiler). Format: biochemical. The settings on record: MEK2, 10μM. On the procedure: as §2, §3, §4, §5, §6, §7

For another assay, the target named is T6, mTOR (Homo sapiens, UniProt P42345).
T6 construct: purchased Eurofins Pharma Discovery Services (KinaseProfiler)
The assay is described as follows: Kinase panel (KinaseProfiler). The format is biochemical. The settings on record: 10μM. On the procedure: as §2, §3, §4, §5, §6, §7

A further assay addresses T7, EGFR (Homo sapiens, UniProt P00533).
T7 construct: purchased Eurofins Pharma Discovery Services (KinaseProfiler)
Description: Kinase panel (KinaseProfiler). Format: biochemical. The settings on record: 10μM. On the procedure:
as §2, §3, §4, §5, §6, §7

The target of the next assay is T8, PKBγ (Homo sapiens, UniProt Q9Y243).
T8 construct: purchased Eurofins Pharma Discovery Services (KinaseProfiler)
The assay is described as follows: Kinase panel (KinaseProfiler). Particulars: 10μM. Format: biochemical. On the procedure:
as §2, §3, §4, §5, §6, §7

The target of a further assay is T9, MAPK1 (Homo sapiens, UniProt P27361).
T9 construct: purchased Eurofins Pharma Discovery Services (KinaseProfiler)
Description: Kinase panel (KinaseProfiler). Format: biochemical. The settings on record: MAPK1, 10μM. On the procedure:
as §2, §3, §4, §5, §6, §7

The next assay concerns the target T10, PKBβ (Homo sapiens, UniProt P31751).
T10 construct: purchased Eurofins Pharma Discovery Services (KinaseProfiler)
The assay is described as follows: Kinase panel (KinaseProfiler). The format is biochemical. Particulars: 10μM. On the procedure:
as §2, §3, §4, §5, §6, §7

Assay [2] relates to AKT phosphorylation (Ser473) in H358 cells (KRAS^G12C). The assay is described as follows: Biomarker phosphorylation assay, pAKT, H358. The format is cell-based, human. Particulars: EGF 10 min. On the procedure:
as §1
A total of 450,000 DLD1 or 640,000 H358 cells were seeded per well of a six well plate. Approximately, 20 h later, the medium was removed, the cells washed twice with PBS and DMEM without FBS was added and left for 24 h. The medium was removed and 2 ml of DMEM no FBS was added with the appropriate concentration of compound (DMSO, 2, 5, 10 or 20 μM) for 3 h. Cells were stimulated with EGF (50 ng/ml) for 10 min, washed once with PBS and directly lysed in SDS-Tris buffer (1% SDS, 10 mM Tris-HCl pH 7.4) supplemented with protease inhibitors (Sigma) and phosphatase inhibitors (Thermo-Fisher). Cell lysates were sonicated with a Branson Sonifier and the protein concentrations determined by using the Pierce BCA protein assay kit (Thermo-Fisher). Furthermore, 10 μg of protein were resolved on 10 or 12.5% SDS-PAGE and subsequently transferred onto a PVDF membrane (GE). The membrane was blocked (with 10% non-fat milk (Sigma) or 10% BSA (Sigma) in TBS-0.1% Tween20) and incubated overnight with primary antibody at 4 °C. […]

As usually defined, the inhibition is how much of the control response was suppressed.

T5 sequence (P36507 whole entry): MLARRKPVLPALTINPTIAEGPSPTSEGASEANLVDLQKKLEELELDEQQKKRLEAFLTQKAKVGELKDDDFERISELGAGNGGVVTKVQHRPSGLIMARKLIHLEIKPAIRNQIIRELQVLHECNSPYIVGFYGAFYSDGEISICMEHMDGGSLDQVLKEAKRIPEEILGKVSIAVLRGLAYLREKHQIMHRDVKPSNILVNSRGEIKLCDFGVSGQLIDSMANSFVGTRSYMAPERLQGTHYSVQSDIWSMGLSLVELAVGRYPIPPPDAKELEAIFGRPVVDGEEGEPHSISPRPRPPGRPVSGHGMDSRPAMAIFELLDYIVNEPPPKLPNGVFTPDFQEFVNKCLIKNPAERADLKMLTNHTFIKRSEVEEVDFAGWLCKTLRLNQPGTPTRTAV
T4 sequence (Q02750 whole entry): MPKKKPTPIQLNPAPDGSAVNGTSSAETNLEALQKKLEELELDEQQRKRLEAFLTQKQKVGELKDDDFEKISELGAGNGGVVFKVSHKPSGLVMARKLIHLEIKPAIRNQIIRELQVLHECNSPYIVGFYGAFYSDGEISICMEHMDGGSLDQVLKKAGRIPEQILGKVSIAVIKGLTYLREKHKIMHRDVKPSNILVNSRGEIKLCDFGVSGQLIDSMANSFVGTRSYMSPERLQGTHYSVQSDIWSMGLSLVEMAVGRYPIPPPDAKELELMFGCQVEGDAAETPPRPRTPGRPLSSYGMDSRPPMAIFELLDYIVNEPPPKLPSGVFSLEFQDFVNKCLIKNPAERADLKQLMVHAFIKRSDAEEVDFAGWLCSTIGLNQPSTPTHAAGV
T2 sequence (P04049 whole entry): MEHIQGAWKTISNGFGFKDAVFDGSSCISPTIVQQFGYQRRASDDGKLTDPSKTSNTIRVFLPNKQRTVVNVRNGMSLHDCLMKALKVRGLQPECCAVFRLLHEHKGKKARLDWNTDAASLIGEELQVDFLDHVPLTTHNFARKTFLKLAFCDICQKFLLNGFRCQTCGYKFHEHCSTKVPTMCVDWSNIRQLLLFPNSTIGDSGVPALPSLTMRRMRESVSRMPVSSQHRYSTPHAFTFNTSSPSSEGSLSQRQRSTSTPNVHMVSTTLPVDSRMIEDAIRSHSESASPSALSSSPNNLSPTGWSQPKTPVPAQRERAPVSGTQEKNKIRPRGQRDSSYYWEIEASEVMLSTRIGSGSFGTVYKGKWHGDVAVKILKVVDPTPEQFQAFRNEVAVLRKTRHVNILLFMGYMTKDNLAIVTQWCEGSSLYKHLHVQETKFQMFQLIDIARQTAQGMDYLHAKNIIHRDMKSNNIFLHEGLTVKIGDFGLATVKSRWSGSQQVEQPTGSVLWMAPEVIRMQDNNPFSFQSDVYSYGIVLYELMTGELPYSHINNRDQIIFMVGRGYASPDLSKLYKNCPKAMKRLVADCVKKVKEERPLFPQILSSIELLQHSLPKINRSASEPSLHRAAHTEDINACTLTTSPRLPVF
T8 sequence (Q9Y243 whole entry): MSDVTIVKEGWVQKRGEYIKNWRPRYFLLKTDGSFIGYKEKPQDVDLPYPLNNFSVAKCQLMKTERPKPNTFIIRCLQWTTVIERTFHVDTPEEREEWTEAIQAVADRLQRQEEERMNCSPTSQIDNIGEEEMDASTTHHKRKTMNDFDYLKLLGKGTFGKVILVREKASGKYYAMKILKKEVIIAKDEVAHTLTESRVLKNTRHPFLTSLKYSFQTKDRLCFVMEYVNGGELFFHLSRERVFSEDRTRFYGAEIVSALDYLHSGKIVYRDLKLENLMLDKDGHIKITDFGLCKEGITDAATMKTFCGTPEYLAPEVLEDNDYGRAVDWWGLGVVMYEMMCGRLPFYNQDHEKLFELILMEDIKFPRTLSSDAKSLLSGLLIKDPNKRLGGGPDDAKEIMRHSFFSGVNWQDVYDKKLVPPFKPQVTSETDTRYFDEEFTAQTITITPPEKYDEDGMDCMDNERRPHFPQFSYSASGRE
T7 sequence (P00533 25-1210): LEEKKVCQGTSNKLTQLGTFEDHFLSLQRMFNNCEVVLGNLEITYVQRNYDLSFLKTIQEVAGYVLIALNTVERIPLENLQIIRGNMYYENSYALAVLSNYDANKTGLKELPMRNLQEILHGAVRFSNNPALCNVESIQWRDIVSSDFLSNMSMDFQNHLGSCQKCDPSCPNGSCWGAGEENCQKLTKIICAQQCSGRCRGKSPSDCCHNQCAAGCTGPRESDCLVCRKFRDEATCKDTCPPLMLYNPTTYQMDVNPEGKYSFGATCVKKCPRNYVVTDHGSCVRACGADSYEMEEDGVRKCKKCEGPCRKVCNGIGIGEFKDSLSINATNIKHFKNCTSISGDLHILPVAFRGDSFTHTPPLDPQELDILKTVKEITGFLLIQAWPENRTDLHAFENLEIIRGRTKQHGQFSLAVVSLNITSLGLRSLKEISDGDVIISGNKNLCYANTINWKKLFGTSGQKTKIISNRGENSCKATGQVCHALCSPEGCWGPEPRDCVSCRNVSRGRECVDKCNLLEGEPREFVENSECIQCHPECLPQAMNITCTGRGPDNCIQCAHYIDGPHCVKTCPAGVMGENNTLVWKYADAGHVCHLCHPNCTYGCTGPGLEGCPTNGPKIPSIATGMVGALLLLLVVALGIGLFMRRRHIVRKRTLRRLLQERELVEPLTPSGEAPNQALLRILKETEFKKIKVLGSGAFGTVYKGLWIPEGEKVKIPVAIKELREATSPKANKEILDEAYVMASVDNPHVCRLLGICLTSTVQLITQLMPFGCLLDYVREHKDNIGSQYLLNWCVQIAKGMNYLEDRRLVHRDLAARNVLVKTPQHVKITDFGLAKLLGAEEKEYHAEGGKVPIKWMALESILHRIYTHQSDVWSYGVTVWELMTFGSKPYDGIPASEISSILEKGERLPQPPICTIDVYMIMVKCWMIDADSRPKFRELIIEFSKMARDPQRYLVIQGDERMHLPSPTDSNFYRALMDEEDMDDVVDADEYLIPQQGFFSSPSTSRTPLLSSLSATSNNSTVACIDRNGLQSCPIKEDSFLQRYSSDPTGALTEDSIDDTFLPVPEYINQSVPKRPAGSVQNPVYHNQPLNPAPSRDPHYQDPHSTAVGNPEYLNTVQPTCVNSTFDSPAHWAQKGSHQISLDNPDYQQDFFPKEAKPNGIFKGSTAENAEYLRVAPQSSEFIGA
T1 sequence (O15530 whole entry): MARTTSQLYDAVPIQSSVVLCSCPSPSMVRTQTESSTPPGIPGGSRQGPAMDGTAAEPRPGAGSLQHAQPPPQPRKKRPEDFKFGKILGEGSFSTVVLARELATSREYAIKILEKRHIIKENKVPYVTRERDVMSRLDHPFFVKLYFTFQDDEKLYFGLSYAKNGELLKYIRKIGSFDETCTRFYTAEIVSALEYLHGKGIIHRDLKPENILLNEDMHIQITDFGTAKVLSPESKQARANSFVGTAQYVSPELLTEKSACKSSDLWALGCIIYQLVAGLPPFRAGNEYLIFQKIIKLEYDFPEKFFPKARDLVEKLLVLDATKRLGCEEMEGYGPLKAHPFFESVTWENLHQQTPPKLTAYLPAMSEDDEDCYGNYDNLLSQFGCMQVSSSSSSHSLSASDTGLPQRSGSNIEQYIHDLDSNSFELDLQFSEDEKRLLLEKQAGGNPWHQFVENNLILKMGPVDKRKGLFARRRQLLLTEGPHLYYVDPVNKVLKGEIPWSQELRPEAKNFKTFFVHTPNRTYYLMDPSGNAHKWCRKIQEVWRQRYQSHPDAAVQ
T10 sequence (P31751 whole entry): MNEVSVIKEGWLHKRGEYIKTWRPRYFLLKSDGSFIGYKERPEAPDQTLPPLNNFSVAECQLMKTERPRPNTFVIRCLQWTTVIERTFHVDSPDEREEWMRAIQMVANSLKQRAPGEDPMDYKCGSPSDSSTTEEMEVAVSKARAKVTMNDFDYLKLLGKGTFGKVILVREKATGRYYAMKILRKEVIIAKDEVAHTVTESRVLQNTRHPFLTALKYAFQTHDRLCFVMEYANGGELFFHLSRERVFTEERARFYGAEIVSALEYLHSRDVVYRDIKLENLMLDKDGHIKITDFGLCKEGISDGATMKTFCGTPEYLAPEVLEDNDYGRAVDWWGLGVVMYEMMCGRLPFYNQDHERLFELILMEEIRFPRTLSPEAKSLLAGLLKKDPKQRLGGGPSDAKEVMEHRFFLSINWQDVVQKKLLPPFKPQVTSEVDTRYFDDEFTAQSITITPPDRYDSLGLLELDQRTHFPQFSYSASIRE
T3 sequence (P15056 whole entry): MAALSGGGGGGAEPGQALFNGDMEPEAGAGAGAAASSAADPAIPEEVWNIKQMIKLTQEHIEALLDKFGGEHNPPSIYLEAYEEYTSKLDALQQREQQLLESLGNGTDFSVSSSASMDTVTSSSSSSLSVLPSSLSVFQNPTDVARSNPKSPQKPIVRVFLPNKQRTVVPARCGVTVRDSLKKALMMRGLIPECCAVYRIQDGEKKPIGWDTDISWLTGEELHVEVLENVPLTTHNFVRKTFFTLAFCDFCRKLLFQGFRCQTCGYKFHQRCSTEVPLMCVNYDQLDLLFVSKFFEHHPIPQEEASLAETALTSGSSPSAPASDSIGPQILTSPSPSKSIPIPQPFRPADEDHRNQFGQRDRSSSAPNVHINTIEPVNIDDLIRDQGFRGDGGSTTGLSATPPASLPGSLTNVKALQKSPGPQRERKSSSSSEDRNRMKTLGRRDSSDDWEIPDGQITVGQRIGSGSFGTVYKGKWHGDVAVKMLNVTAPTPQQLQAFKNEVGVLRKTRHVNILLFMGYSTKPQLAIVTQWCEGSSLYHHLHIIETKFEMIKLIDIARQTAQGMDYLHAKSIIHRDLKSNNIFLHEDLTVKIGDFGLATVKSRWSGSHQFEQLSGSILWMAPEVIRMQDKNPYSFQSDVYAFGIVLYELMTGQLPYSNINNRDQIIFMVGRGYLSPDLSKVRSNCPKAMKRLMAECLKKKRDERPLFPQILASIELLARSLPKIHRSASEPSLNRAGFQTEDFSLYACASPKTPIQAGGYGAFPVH

Consider `COc1nc(-c2cccc3c2OCCO3)ccc1Nc1ccc(CN(C)C)cc1` [Abd-7], for which the “inhibition of ERK1/2 phosphorylation” value in assay [1] is “diminution of pERK levels”. Further, the “% kinase activity in the presence of Abd-7” value at PDK1 is reported as 107%; at CRAF, 101%; on BRAF it was 104%; on MEK1, 105%; at MEK2, 101%; on mTOR, 89%. Moreover, the “% kinase activity in the presence of Abd-7” value at EGFR worked out at 93%; at PKBγ it was 103%; on MAPK1, 126%; at PKBβ, 93%. The “inhibition of AKT phosphorylation” value in assay [2] (H358, 20 μM, 3 h) is on record as “complete inhibition”. In addition, the “concentration at which inhibition of AKT phosphorylation initiates” value in [2] (H358, starved 24 h, 3 h compound, Western) is 2 µM. The inhibition at 10 µM in [2] (Homo sapiens, NCI-H358, H358, 10 μM, 3 h) is greater than 50%.
